Assay results as given in ChEMBL document CHEMBL4339247, “Ascomylactams A-C, Cytotoxic 12- or 13-Membered-Ring Macrocyclic Alkaloids Isolated from the Mangrove Endophytic Fungus Didymella sp. CYSK-4, and Structure Revisions of Phomapyrrolidones A and C” (J Nat Prod, 2019).

What was measured:
Type in all cases: functional, cell-based
[1] = tested on: HCT-116; assay: Cytotoxicity in human HCT116 cells assessed as reduction in cell viability incubated for 72 hrs by MTT assay; conditions: HCT-116, 72 h
[2] = tested on: PC-3; assay: Cytotoxicity in human PC3 cells assessed as reduction in cell viability incubated for 72 hrs by MTT assay; conditions: PC-3, 72 h
[3] = tested on: SNB-19; assay: Cytotoxicity in human SNB19 cells assessed as reduction in cell viability incubated for 72 hrs by MTT assay; conditions: SNB-19, 72 h
[4] = tested on: MDA-MB-435; assay: Cytotoxicity in human MDA-MB-435 cells assessed as reduction in cell viability incubated for 72 hrs by MTT assay; conditions: MDA-MB-435, 72 h
[5] = tested on: NCI-H460; assay: Cytotoxicity in human NCI-H460 cells assessed as reduction in cell viability incubated for 72 hrs by MTT assay; conditions: NCI-H460, 72 h
[6] = tested on: MDA-MB-231; assay: Cytotoxicity in human MDA-MB-231 cells assessed as reduction in cell viability incubated for 72 hrs by MTT assay; conditions: MDA-MB-231, 72 h

| SMILES | IC50 [1] | IC50 [2] | IC50 [3] | IC50 [4] | IC50 [5] | IC50 [6] |
| --- | --- | --- | --- | --- | --- | --- |
| CC1=C[C@@]2(C)C(=C(C)[C@H]3[C@@H]4C[C@H](C)C[C@H](C)[C@H]4[C@@H]4Oc5ccc(cc5)C[C@@]5(O)C=C(C(=O)N5)C(=O)[C@@H]2[C@@H]43)[C@H]1C | 4.5 µM | 20 µM | 18 µM | 12 µM | 13 µM | 6.6 µM |
| CC1=C[C@@]2(C)C(=C(C)[C@H]3[C@@H]4C[C@H](C)C[C@H](C)[C@H]4[C@H]4Oc5ccc(cc5)C[C@@H]5C(=O)NC(=O)[C@H]5C(=O)[C@@H]2[C@@H]43)[C@H]1C | 25 µM | > 50 µM | > 50 µM | 26 µM | 28 µM | 30 µM |
| CC1=C[C@@]2(C)C(=C(C)[C@H]3[C@@H]4C[C@H](C)C[C@H](C)[C@H]4[C@H]4Oc5ccc(cc5)C[C@]5(O)NC(=O)[C@]6(O[C@H]65)C(=O)[C@@H]2[C@@H]43)[C@H]1C | 4.2 µM | 7.5 µM | 7.8 µM | 7.8 µM | 4.4 µM | 5.1 µM |
| CC1=C[C@@]2(C)C(=C(C)[C@H]3[C@@H]4C[C@H](C)C[C@H](C)[C@H]4[C@H]4Oc5ccc(cc5)C[C@]5(O)NC(=O)[C@]6(O[C@H]65)C(=O)[C@H]2[C@@H]43)[C@H]1C | 15 µM | 22 µM | 29 µM | 16 µM | 12 µM | 12 µM |
| CO[C@@H]1/C2=C(\O)[C@H]3[C@H]4[C@H](Oc5ccc(cc5)C[C@]1(O)NC2=O)[C@H]1[C@@H](C[C@H](C)C[C@@H]1C)[C@@H]4C(C)=C1[C@@H](C)C(C)=C[C@@]13C | 5.5 µM | 5.7 µM | 6.8 µM | 4.9 µM | 4.4 µM | 5.9 µM |
| COc1cccc2c1C(=O)c1c(O)c3c(c(O)c1C2=O)C[C@@](O)(C(=O)CO)C[C@@H]3O[C@H]1C[C@H](N)[C@@H](O)[C@H](C)O1 [EPIRUBICIN] |  |  | 2.3 µM |  |  |  |
